For one series, the target named is T1, human NLRP3 (Homo sapiens, UniProt Q96P20).
T1 construct: Human whole blood is drawn from healthy volunteers after obtaining written informed consent; from tissue
Put plainly: Human Whole Blood (hWB) NLRP3 Assay. In kind it is cell-based. The note with it: LPS priming, ATP activation, IL-1β levels. How it is done: (ii) Human Whole Blood (hWB) NLRP3 Assay
Human whole blood is drawn from healthy volunteers after obtaining written informed consent. Heparin lithium coated tubes are used to collect blood from volunteers. Blood samples are distributed on 96 well plates using 90 μl per well. Priming is performed by adding 5 μl of LPS (026: B6; Sigma L-2654) at a final concentration of 1 μg/ml for 4.5 hours in a humidified incubator with 37° C. 5% CO2. Thirty minutes prior to NLRP3 activation, 5 μl of a 20× compound solution or vehicle (2% dimethylsulfoxide (DMSO)) is added to each well and plates were incubated on a shaker (450 rpm) in a humidified incubator with 37° C., 5% CO2. Activation is then performed by adding 3.3 μl of a 31× ATP solution per well. At the end of the 30 minutes stimulation, the plates are centrifuged (800 g, 10 min, room temperature) and the plasma from each well is frozen at −80° C. IL-1β levels in the supernatant were analyzed using a mesoscale discovery assay (MSD K151TUK) according to the manufacturers’ instructions.

Series [1] can be described thus: Mouse Hepatocyte Stability Assay. The note with it: mouse hepatocytes, 37° C.; read-out: Hep (mouse) (t½ min). The format is in vitro ADME. How it is done: (§1) (v) Mouse and Human Hepatocyte Stability Assays
(§2) A hepatocyte stability assay is a laboratory-based method used to determine the metabolic stability of a compound in hepatocytes (liver cells). This assay provides valuable information about how quickly a drug is metabolized in the liver and can be used to assess its potential effectiveness and safety in drug discovery.
(§3) In the assay, cither human or mouse hepatocytes are incubated with the test compound at a controlled temperature of 37° C., for different time periods (e.g., 5, 15, 30, 60, and 120 minutes). At each time point during the incubation, samples are taken, the reaction is terminated, and the amount of test compound remaining analyzed using LC-MS/MS to monitor the disappearance of the test compound over time (Gradient). […] See, e.g., Coe et al., Methods in Pharmacology & Toxicology (2008) 151.

Series [2] in a line: Human Hepatocyte Stability Assay. The format is in vitro ADME. Particulars: human hepatocytes, 37° C.; read-out: Hep (human) (t½ min). The protocol: as §1, §2, §3
Series [3] is described as follows: Brain Levels (Kp and Kpu,u). In kind it is in vivo, CDI mice. The note with it: for Kp at 24 h: mice dosed at 20 mpk PO, whole brain AUC over 24 h divided by plasma AUC; for Kp: oral, 20 mpk. How it is done:
(iv) Brain Levels (Kp and Kpu,u)—NLRP3
The in vivo total brain to plasma ratio was assessed in CDI mice after oral administration of the compound. Blood was collected at several timepoints up to 24 h, and transferred into plastic micro centrifuge tubes with EDTA-K2 as anticoagulant. Blood samples were centrifuged at 4000 g for 5 minutes at 4° C., to obtain plasma, then immediately frozen and stored at −75±15° C., prior to analysis. Animals were terminally anaesthetized with a rising concentration of CO2 gas at about 1 minute. At selected timepoints, whole brains were removed from the skull, rinsed in cold PBS to remove blood, dried with clean gauze, then frozen in liquid nitrogen and kept at −75±15° C. before analysis. At the time of analysis, brain samples were homogenized with PBS by tissue weight (g) to PBS volume (mL) ratio 1:3.
Plasma and brain drug levels were quantified by LC/MS/MS on an AB Sciex Triple Quad 5500+instrument, after separation on a HALO 160 A ES-C18, 2.7 μm 2.1×50 mm column. Quantitation was performed using a calibration curve prepared in blank plasma or blank brain homogenate. The software WinNonlin (Phoenix™) was used for pharmacokinetic analysis from the concentrations versus time data, including the AUCinf and AUClast. The Kp ratio (total brain concentration over total plasma concentration) was calculated as (AUCtot,br)/(AUCtot,pl).
The unbound brain exposure was assessed as Kpuu, which is the free brain/free plasma concentration ratio (Cu,bt/Cu,pl). The Cu,br/Cu,pl ratios were obtained from in vivo total brain to plasma ratios (Ctot,br/Ctot,pl) by using in vitro determined Fu,br and Fu,pl.
Plasma protein binding and brain homogenate protein binding were measured by equilibrium dialysis in a HTDialysis plate. The dialysis membranes were soaked in ultrapure water for 60 minutes to separate strips, then in 20% ethanol for 20 minutes, finally in dialysis buffer for 20 minutes. The dialysis set up was assembled according to the manufacturer's instruction. Each cell received 150 μL of plasma or brain homogenate spiked with 1 mM of compound, and dialyzed against an equal volume of dialysis buffer (PBS). The dialysis plate was sealed and incubated in an incubator at 37° C. with 5% CO2 at 100 rpm for 6 hours. At the end of incubation, compound concentration was measured in both chambers by LC-MS/MS on a Triple Quad™ 5500 from AB Inc after separation on a XSelect Hss T3.2.5μ (2.1×30 mm) column. Free fraction (Fu) was calculated as (Peak Area Ratio buffer chamber/Peak Area Ratio plasma chamber). Kpuu=(AUCtot,br×Fu,br)/([…])
The Kpu,u was then calculated upon correcting this kp value with mouse plasma protein binding and mouse brain homogenates binding.
A Kpu,u value >0.3 is considered brain penetrant, and a Kpu,u value ≤0.3 is not considered brain penetrant. When the Kpu,u value is not determined, the Kp value may be useful as a metric of potential brain penetrance if the Kp value is >0.3.

Series [4] can be described thus: Solubility Protocol in Phosphate Buffered Saline (PBS). In kind it is physicochemical. Particulars: for solubility at 2 h: pH 7.4, aqueous buffer. How it is done: (vi) Solubility Protocol in Phosphate Buffered Saline (PBS)
The kinetic solubility of test compounds and control compounds was measured in commercial phosphate buffered saline (PBS), pH 7.4 (Wisent, Canada).
Briefly, a stock solution (20 mM DMSO for controls, and 10 mM DMSO for test compounds) was combined with PBS buffer to reach a targeted concentration of 400 μM for controls and 200 μM for test compounds. The spiked-PBS mixtures were then agitated on a VX-2500 multi-tube vortexer (VWR) for 2 hours at room temperature (18° C.). Following agitation, the samples were filtered on a glass fiber filter (1 μm) and the eluates were diluted 400-fold with a mixture of acetonitrile:water (1:1). Solubility determination was then performed against one standard sample prepared in high organic content at the expected top concentration. The lower limit of quantification was arbitrarily set at 1 μM (400-fold dilution of the top concentration) for assay controls, and 0.5 μM for test compounds. On each experimental run, nicardipine and imipramine were assessed as reference compounds for low and high solubility, respectively. All samples were assessed in triplicate and analyzed by LC-MS/MS (using a CTC PAL autosampler, Thermo Accela UPLC, and a Thermo Quantum mass spectrometer) using electrospray ionization against standards prepared in the same matrix

[5] abbreviates: CDI, mouse, brain (whole brain homogenate) relative to plasma, po, 20 mg/kg.
Where [6] appears, read: phosphate buffered saline (PBS), 18 °C, kinetic from dmso stock.
Setting [7] is: CDI, mouse, brain (whole brain homogenate) relative to plasma, brain levels, mice.

Values after ≈ are worked out from the molar mass of the structure shown. Like-named read-outs stand apart in the source and are kept apart here.

T1 sequence (Q96P20 whole entry): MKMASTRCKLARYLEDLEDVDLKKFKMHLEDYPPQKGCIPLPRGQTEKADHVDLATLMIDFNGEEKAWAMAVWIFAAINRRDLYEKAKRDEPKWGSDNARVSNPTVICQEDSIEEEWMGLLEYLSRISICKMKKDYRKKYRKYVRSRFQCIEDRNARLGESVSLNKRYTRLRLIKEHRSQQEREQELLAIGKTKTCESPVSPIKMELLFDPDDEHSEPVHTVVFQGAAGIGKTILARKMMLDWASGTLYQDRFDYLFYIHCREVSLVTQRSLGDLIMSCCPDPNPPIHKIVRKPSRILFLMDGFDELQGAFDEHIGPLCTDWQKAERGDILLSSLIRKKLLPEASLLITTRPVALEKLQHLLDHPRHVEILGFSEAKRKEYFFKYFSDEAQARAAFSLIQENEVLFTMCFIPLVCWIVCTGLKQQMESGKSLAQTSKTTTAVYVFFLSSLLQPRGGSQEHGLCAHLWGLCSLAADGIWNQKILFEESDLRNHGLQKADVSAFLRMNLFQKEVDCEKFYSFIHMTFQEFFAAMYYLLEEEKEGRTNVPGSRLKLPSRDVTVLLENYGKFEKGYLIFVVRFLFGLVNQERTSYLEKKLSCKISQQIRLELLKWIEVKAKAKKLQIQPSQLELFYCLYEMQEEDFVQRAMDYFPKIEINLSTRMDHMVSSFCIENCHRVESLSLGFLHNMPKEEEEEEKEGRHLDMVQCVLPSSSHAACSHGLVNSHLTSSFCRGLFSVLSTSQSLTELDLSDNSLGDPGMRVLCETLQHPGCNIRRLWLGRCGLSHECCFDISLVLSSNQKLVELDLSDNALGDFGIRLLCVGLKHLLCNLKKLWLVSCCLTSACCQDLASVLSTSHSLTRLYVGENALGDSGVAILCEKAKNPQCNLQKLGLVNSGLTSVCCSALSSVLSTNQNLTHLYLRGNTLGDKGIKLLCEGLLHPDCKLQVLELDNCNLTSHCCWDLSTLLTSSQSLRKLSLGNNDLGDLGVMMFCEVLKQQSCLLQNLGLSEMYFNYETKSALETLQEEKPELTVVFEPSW

In the case of “6-(1-(((1R,5S,8s)-3-oxabicyclo[3.2.1]octan-8-yl)amino)pyrido[3,4-d]pyridazin-4-yl)-2-fluoro-3-methylphenol [Compound 15A-regioisomer]”, the IC50 against human NLRP3 was 1.51 µM.

The compound `Oc1cc(Cl)ccc1-c1nnc(N[C@H]2C[C@@H]3CC[C@H]2O3)c2cnccc12` (single isomer, unassigned) [Compound 3B*] gave an IC50 against human NLRP3 of 5 µM.

`Oc1cc(Cl)ccc1-c1nnc(N[C@@H]2C[C@H]3CC[C@@H]2O3)c2cnccc12` (single isomer, unassigned) [Compound 3C*] had an IC50 against human NLRP3 of 0.27 µM. In addition, the half-life in series [1] worked out at 1.67 h.

Take `Oc1cc(Cl)ccc1-c1nnc(N[C@H]2C[C@H]3CC[C@@H]2O3)c2cnccc12` (single isomer, unassigned) [Compound 3D*]: the IC50 against human NLRP3 was found to be 2.42 µM. Besides, the half-life in series [1] was determined as 0.167 h.

With `Cc1ccc(-c2nnc(N[C@@H]3C[C@@H]4CC[C@H]3O4)c3cnccc23)c(O)c1` (single isomer, unassigned) [Compound 7A], the values for the half-life in series [2] and in series [1] were more than 8 h and 0.95 h, respectively. In addition, the IC50 on human NLRP3 stood at 0.23 µM. In series [3] (setting [5]), this compound displayed a Kp at 24 h of 0.61.

At human NLRP3, `Cc1ccc(-c2nnc(N[C@H]3C[C@@H]4CC[C@H]3O4)c3cnccc23)c(O)c1` (single isomer, unassigned) [Compound 7B] gave an IC50 of 5.3 µM.

As for `Cc1ccc(-c2nnc(N[C@H]3C[C@H]4CC[C@@H]3O4)c3cnccc23)c(O)c1` (single isomer, unassigned) [Compound 7D], at human NLRP3, the IC50 was found to be 4.66 µM.

The compound `Oc1cc(Cl)ccc1-c1nnc(N[C@@H]2C[C@@H]3C[C@H]2CO3)c2cnccc12` (single isomer, unassigned) [Compound 8A] had an IC50 against human NLRP3 of 0.27 µM. Besides, in series [1], the half-life is 4.17 h.

Regarding `Oc1cc(Cl)ccc1-c1nnc(N[C@H]2C[C@H]3C[C@@H]2CO3)c2cnccc12` (single isomer, unassigned) [Compound 8B], the solubility (kinetic) at 2 h in series [4] (phosphate buffered saline (PBS), 18 °C, aqueous buffer, kinetic from dmso stock, kinetic solubility, PBS pH 7.4, 2 hours at room temperature) is more than 300 µM. This compound also had a solubility at 2 h in series [4] (setting [6]) of more than 300 µM. For the same compound, the IC50 on human NLRP3 is 0.59 µM. Besides, the half-life in series [1] amounted to 4.67 h. This compound also showed a Kp in series [3] (setting [7]) of 0.35. Moreover, the Kpu,u in series [3] (CDI, mouse, brain (whole brain homogenate) relative to plasma, po, 20 mg/kg, Kp corrected with mouse plasma protein binding and mouse brain homogenates binding, 20 mpk PO, read-out: Kpu,u) was 0.1; in series [3] (brain levels, unbound, mice) it was “— 0.10”. Also, the Kp at 24 h in series [3] (setting [5]) stood at 0.35.

Consider `Oc1cc(Cl)ccc1-c1nnc(N[C@]23CCC(C2)OC3)c2cnccc12` (single isomer, unassigned) [Compound 9A], for which, at human NLRP3, the IC50 was more than 50 µM.

In the case of `Oc1cc(Cl)ccc1-c1nnc(N[C@@]23CCC(C2)OC3)c2cnccc12` (single isomer, unassigned) [Compound 9B], the IC50 against human NLRP3 is more than 50 µM.

On human NLRP3, `Oc1cc(C(F)(F)F)ccc1-c1nnc(N[C@H]2C[C@@H]3CC[C@H]2O3)c2cnccc12` (single isomer, unassigned) [Compound 10B*] registered an IC50 of 6.76 µM.

`Oc1cc(C(F)(F)F)ccc1-c1nnc(N[C@H]2C[C@H]3CC[C@@H]2O3)c2cnccc12` (single isomer, unassigned) [Compound 10D*]: the half-life is more than 8 h in series [2] and 8 h in series [1]. Moreover, half-maximal inhibition on human NLRP3 (IC50) was put at 5.34 µM.

For the compound `Oc1cc(Cl)ccc1-c1nnc(N[C@H]2C[C@H]3CC[C@@H](C2)O3)c2cnccc12` [Compound 1A*-r, 2-(4-(((1R,3r,5S)-8-oxabicyclo[3.2.1]octan-3-yl)amino)pyrido[3,4-d]pyridazin-1-yl)-5-chlorophenol], in series [4] (kinetic solubility, PBS pH 7.4, 2 hours at room temperature), the “Sol (PBS)” value is 3.5 µM. Moreover, the solubility at 2 h in series [4] (setting [6]) was found to be 3.5 µM (≈ 1.34 µg/mL). The IC50 at human NLRP3 amounted to 1.39 µM. Further, in series [3] (setting [7]), the concentration ratio (Kp) is 0.047. The Kp at 24 h in series [3] (setting [5]) was found to be 0.047.

`Cc1ccc(-c2nnc(N[C@@H]3C[C@H]4CC[C@@H](C3)O4)c3cnccc23)c(O)c1` [Compound 2B*-r, 2-(4-(((1R,3s,5S)-8-oxabicyclo[3.2.1]octan-3-yl)amino)pyrido[3,4-d]pyridazin-1-yl)-5-methylphenol]: at human NLRP3, the midpoint of inhibition, the IC50, lay at 4.12 µM. In series [1], the half-life was found to be 3.67 h.

Compound `Cc1ccc(-c2nnc(N[C@H]3C[C@H]4CC[C@@H](C3)O4)c3cnccc23)c(O)c1F` [Compound 12A*-r, 6-(4-(((1R,3r,5S)-8-oxabicyclo[3.2.1]octan-3-yl)amino)pyrido[3,4-d]pyridazin-1-yl)-2-fluoro-3-methylphenol] registered an IC50 at human NLRP3 of 2 µM. Besides, the half-life in series [1] was determined as 3.33 h.

For `Cc1cc(O)c(-c2nnc(N[C@H]3[C@@H]4CC[C@H]3COC4)c3cnccc23)c(F)c1` [Compound 16A, 2-(4-(((1R,5S,8s)-3-oxabicyclo[3.2.1]octan-8-yl)amino)pyrido[3,4-d]pyridazin-1-yl)-3-fluoro-5-methylphenol], on human NLRP3, the IC50 is 0.48 µM. In other words, the sub-micromolar range.

`Cc1cc(C)c(-c2nnc(N[C@H]3[C@@H]4CC[C@H]3COC4)c3cnccc23)c(O)c1` [Compound 17A, 2-(4-(((1R,5S,8s)-3-oxabicyclo[3.2.1]octan-8-yl)amino)pyrido[3,4-d]pyridazin-1-yl)-3,5-dimethylphenol] displayed an IC50 at human NLRP3 of 0.31 µM.

In turn, `N#Cc1ccc(-c2nnc(N[C@H]3[C@@H]4CC[C@H]3COC4)c3cnccc23)c(O)c1` [Compound 18A, 4-(4-(((1R,5S,8s)-3-oxabicyclo[3.2.1]octan-8-yl)amino)pyrido[3,4-d]pyridazin-1-yl)-3-hydroxybenzonitrile] showed an IC50 on human NLRP3 of 0.32 µM. The IC50 values of the last two compounds are within 1.5-fold of each other.

One may read the IC50 as the point on the concentration scale where inhibition reaches its midpoint. Low readings indicate greater potency in that assay, high ones weaker potency in that assay. In general, Kp refers to tissue or fluid exposure divided by exposure in the circulation. A word on the solubility (kinetic): it is the concentration staying in solution when a stock, usually in DMSO, is diluted into the medium. Usually solubility stands for the dissolved amount per volume that the medium holds.

These data come from patent US20250257077A1, “BRIDGED BICYCLIC HETEROCYCLOALKYL PYRIDO-[3,4-d]PYRIDAZINE AMINE DERIVATIVES USEFUL AS NLRP3 INHIBITORS” (Ventus Therapeutics U.S., Inc., priority 2022, published 2025).
